According to article PMC11350809, “Targeting N-Acetylglucosaminidase in Staphylococcus aureus with Iminosugar Inhibitors” (Antibiotics, 2024):
In brackets after ≈: the same amount, converted by molar mass.

Target: α-Glucosidase (from baker's yeast)
Assay: not given
Settings: pH 7.2, p-nitrophenyl-a-d-glucopyranoside; footnote **; cited from earlier work
For CCCCCCCCCCN(CCCCCCCCCC)C(=O)CNC(=N)N1CC(O)C(O)C(O)C1 (stereo not drawn) [Compound 6], the IC50 is listed as > 100 µM. For CCCCCCCCCN1C[C@H](O)[C@@H](O)[C@H](O)[C@H]1CO [NN-DNJ, reference compound], the IC50 is given as > 100 µM. For CCCCCCCCCCCCNC(=O)N1CC(O)C(O)C(O)C1 (stereo not drawn) [Compound 9], the IC50 is listed as > 100 µM. In the case of CCCCCCCCNC(=O)N1CC(O)C(O)C(O)C1 (stereo not drawn) [Compound 7], the IC50 is given as > 100 µM.

Same assay, conditions: pH 7.2, p-nitrophenyl-α-D-glucopyranoside; footnote ***; cited from earlier work
For CCCCCCCCCN1C[C@H](O)[C@@H](O)[C@H](O)[C@H]1CO [NN-DNJ, reference compound], the IC50 is listed as > 30 µM.

Same assay, conditions: pH 7.2, p-nitrophenyl-α-D-glucopyranoside; footnote *; cited from earlier work
For CCCCCCCCCN1C[C@H](O)[C@@H](O)[C@H](O)[C@H]1CO [NN-DNJ, reference compound], the IC50 is listed as > 100 µM.

Target: β-galactocerebrosidase (GALC)
Assay: not given
Settings: footnote ***; cited from earlier work
For CCCCCCCCCN1C[C@H](O)[C@@H](O)[C@H](O)[C@H]1CO [NN-DNJ, reference compound], the IC50 is listed as > 30 µM.

Same assay, conditions: footnote **; cited from earlier work
In the case of CCCCCCCCCCN(CCCCCCCCCC)C(=O)CNC(=N)N1CC(O)C(O)C(O)C1 (stereo not drawn) [Compound 6], the IC50 is listed as > 10 µM. For CCCCCCCCCN1C[C@H](O)[C@@H](O)[C@H](O)[C@H]1CO [NN-DNJ, reference compound], the IC50 is given as > 10 µM. In the case of CCCCCCCCCCCCNC(=O)N1CC(O)C(O)C(O)C1 (stereo not drawn) [Compound 9], the IC50 is listed as > 10 µM. In the case of CCCCCCCCNC(=O)N1CC(O)C(O)C(O)C1 (stereo not drawn) [Compound 7], the IC50 is listed as > 10 µM.

Same assay, conditions: footnote *; cited from earlier work
In the case of CCCCCCCCCN1C[C@H](O)[C@@H](O)[C@H](O)[C@H]1CO [NN-DNJ, reference compound], the IC50 is listed as > 10 µM.

Target: naringinase (Nar)
Assay: not given
Settings: footnote ***; cited from earlier work
In the case of CCCCCCCCCN1C[C@H](O)[C@@H](O)[C@H](O)[C@H]1CO [NN-DNJ, reference compound], the IC50 is listed as 100 ± 10 nM.

Same assay, conditions: footnote **; cited from earlier work
For CCCCCCCCCCN(CCCCCCCCCC)C(=O)CNC(=N)N1CC(O)C(O)C(O)C1 (stereo not drawn) [Compound 6], the IC50 is given as 3900 ± 600 nM. For CCCCCCCCCN1C[C@H](O)[C@@H](O)[C@H](O)[C@H]1CO [NN-DNJ, reference compound], the IC50 is given as 200 ± 10 nM. In the case of CCCCCCCCCCCCNC(=O)N1CC(O)C(O)C(O)C1 (stereo not drawn) [Compound 9], the IC50 is given as > 100000 nM. In the case of CCCCCCCCNC(=O)N1CC(O)C(O)C(O)C1 (stereo not drawn) [Compound 7], the IC50 is given as > 100000 nM.

Same assay, conditions: footnote *; cited from earlier work
For CCCCCCCCCN1C[C@H](O)[C@@H](O)[C@H](O)[C@H]1CO [NN-DNJ, reference compound], the IC50 is listed as 100 ± 10 nM.

Target: β-Galactosidase (from bovine liver)
Assay: not given
Settings: footnote ***; cited from earlier work
In the case of CCCCCCCCCN1C[C@H](O)[C@@H](O)[C@H](O)[C@H]1CO [NN-DNJ, reference compound], the IC50 is listed as > 30 µM.

Same assay, conditions: footnote **; cited from earlier work
In the case of CCCCCCCCCCN(CCCCCCCCCC)C(=O)CNC(=N)N1CC(O)C(O)C(O)C1 (stereo not drawn) [Compound 6], the IC50 is listed as 11.6 ± 4 µM. For CCCCCCCCCN1C[C@H](O)[C@@H](O)[C@H](O)[C@H]1CO [NN-DNJ, reference compound], the IC50 is listed as > 100 µM. In the case of CCCCCCCCCCCCNC(=O)N1CC(O)C(O)C(O)C1 (stereo not drawn) [Compound 9], the IC50 is listed as 12.9 ± 1.9 µM. For CCCCCCCCNC(=O)N1CC(O)C(O)C(O)C1 (stereo not drawn) [Compound 7], the IC50 is given as 19.6 ± 1.5 µM.

Same assay, conditions: footnote *; cited from earlier work
In the case of CCCCCCCCCN1C[C@H](O)[C@@H](O)[C@H](O)[C@H]1CO [NN-DNJ, reference compound], the IC50 is listed as > 100 µM.

Tested on: E. coli (ATCC 25922)
Assay: Minimal inhibitory concentration, broth microdilution (negative control strain)
Type: cell-based
Settings: Escherichia coli, ATCC25922; broth microdilution, 20 h at 35 °C; read-out: MIC E. coli ATCC25922
Description: (§1) The minimal inhibitory concentrations (MICs) were determined against the bacterial strains S. aureus (ATCC 29213) and E. coli (ATCC 25922), and the results are presented in Table S6.
(§2) Antimicrobial testing was carried out by the broth microdilution method in a 96-well plate format following the CLSI guidelines and European Committee for Antimicrobial Susceptibility Testing (EUCAST) recommendations. Bacterial suspension of a specific bacterial strain equivalent to 0.5 McFarland turbidity standard was diluted with cation-adjusted Mueller Hinton broth to obtain a final inoculum of 10^5 CFU/mL. Compounds dissolved in 20% DMSO and inoculum were mixed together and incubated for 20 h at 35 °C. After incubation, the minimal inhibitory concentration (MIC) values were determined by visual inspection as the lowest dilution of compounds showing no turbidity. The MICs were determined against S. aureus (ATCC 29213) and E. coli (ATCC 25922) bacterial strains. Tetracycline was used as a positive control on every assay plate, showing MICs of 0.5 µg/mL and 1 µg/mL for S. aureus and E. coli, respectively.
CCCCCCCCCCN(CCCCCCCCCC)C(=O)CNC(=N)N1CC(O)C(O)C(O)C1 (stereo not drawn) [Compound 6] showed an MIC of 500 µM (≈ 256 µg/mL). In the case of CCCCCCCCCCCCNC(=O)N1CC(O)C(O)C(O)C1 (stereo not drawn) [Compound 9], the MIC is reported as > 500 µM. With CCCCCCCCNC(=O)N1CC(O)C(O)C(O)C1 (stereo not drawn) [Compound 7] the MIC was > 500 µM.

Target: α-Galactosidase (from green coffee beans)
Assay: not given
Settings: pH 6.8, p-nitrophenyl-a-d-galactopyranoside; footnote **; cited from earlier work
In the case of CCCCCCCCCCN(CCCCCCCCCC)C(=O)CNC(=N)N1CC(O)C(O)C(O)C1 (stereo not drawn) [Compound 6], the IC50 is listed as > 100 µM. For CCCCCCCCCN1C[C@H](O)[C@@H](O)[C@H](O)[C@H]1CO [NN-DNJ, reference compound], the IC50 is listed as > 100 µM. In the case of CCCCCCCCCCCCNC(=O)N1CC(O)C(O)C(O)C1 (stereo not drawn) [Compound 9], the IC50 is listed as > 100 µM. For CCCCCCCCNC(=O)N1CC(O)C(O)C(O)C1 (stereo not drawn) [Compound 7], the IC50 is given as > 100 µM.

Same assay, conditions: pH 6.8, p-nitrophenyl-α-D-galactopyranoside; footnote ***; cited from earlier work
In the case of CCCCCCCCCN1C[C@H](O)[C@@H](O)[C@H](O)[C@H]1CO [NN-DNJ, reference compound], the IC50 is listed as > 30 µM.

Same assay, conditions: pH 6.8, p-nitrophenyl-α-D-galactopyranoside; footnote *; cited from earlier work
For CCCCCCCCCN1C[C@H](O)[C@@H](O)[C@H](O)[C@H]1CO [NN-DNJ, reference compound], the IC50 is listed as > 100 µM.

Tested on: S. aureus (ATCC 29213)
Assay: Minimal inhibitory concentration, broth microdilution
Type: cell-based, Staphylococcus aureus
Settings: Staphylococcus aureus, ATCC29213; broth microdilution, 20 h at 35 °C; read-out: MIC S. aureus ATCC29213
Description: as §1, §2
For CCCCCCCCCCN(CCCCCCCCCC)C(=O)CNC(=N)N1CC(O)C(O)C(O)C1 (stereo not drawn) [Compound 6], the MIC was ≤ 4 µM. Molecule CCCCCCCCCCCCNC(=O)N1CC(O)C(O)C(O)C1 (stereo not drawn) [Compound 9] has an MIC of 250 µM (≈ 86.1 µg/mL). In the case of CCCCCCCCNC(=O)N1CC(O)C(O)C(O)C1 (stereo not drawn) [Compound 7], the MIC is reported as 125 µM (≈ 36 µg/mL).

Same assay, conditions: in words
With CCCCCCCCCCN(CCCCCCCCCC)C(=O)CNC(=N)N1CC(O)C(O)C(O)C1 (stereo not drawn) [Compound 6] the “antibacterial activity against S. aureus ATCC 29213” value (“antibacterial activity” for short) was “modest antibacterial activities”. With CCCCCCCCCCCCNC(=O)N1CC(O)C(O)C(O)C1 (stereo not drawn) [Compound 9] the “antibacterial activity” value was “modest antibacterial activities”. With CCCCCCCCNC(=O)N1CC(O)C(O)C(O)C1 (stereo not drawn) [Compound 7] the “antibacterial activity” value was “modest antibacterial activities”.

Target: β-Glucosidase (from almond)
Assay: not given
Settings: pH 5.0, p-nitrophenyl-b-d-glucopyranoside; footnote **; cited from earlier work
For CCCCCCCCCCN(CCCCCCCCCC)C(=O)CNC(=N)N1CC(O)C(O)C(O)C1 (stereo not drawn) [Compound 6], the IC50 is listed as > 100 µM. For CCCCCCCCCN1C[C@H](O)[C@@H](O)[C@H](O)[C@H]1CO [NN-DNJ, reference compound], the IC50 is given as > 100 µM. For CCCCCCCCCCCCNC(=O)N1CC(O)C(O)C(O)C1 (stereo not drawn) [Compound 9], the IC50 is given as > 100 µM. In the case of CCCCCCCCNC(=O)N1CC(O)C(O)C(O)C1 (stereo not drawn) [Compound 7], the IC50 is given as > 100 µM.

Same assay, conditions: pH 5.0, p-nitrophenyl-β-D-glucopyranoside; footnote ***; cited from earlier work
For CCCCCCCCCN1C[C@H](O)[C@@H](O)[C@H](O)[C@H]1CO [NN-DNJ, reference compound], the IC50 is given as > 30 µM.

Same assay, conditions: pH 5.0, p-nitrophenyl-β-D-glucopyranoside; footnote *; cited from earlier work
In the case of CCCCCCCCCN1C[C@H](O)[C@@H](O)[C@H](O)[C@H]1CO [NN-DNJ, reference compound], the IC50 is listed as > 100 µM.

Target: human recombinant β-glucocerebrosidase (GBA)
Assay: not given
Settings: pH 5.2; footnote **; read-out: IC50 GBA pH 5.2; cited from earlier work
In the case of CCCCCCCCCCN(CCCCCCCCCC)C(=O)CNC(=N)N1CC(O)C(O)C(O)C1 (stereo not drawn) [Compound 6], the IC50 is listed as 0.04 ± 0.01 µM. For CCCCCCCCCCCCNC(=O)N1CC(O)C(O)C(O)C1 (stereo not drawn) [Compound 9], the IC50 is listed as > 10 µM. For CCCCCCCCNC(=O)N1CC(O)C(O)C(O)C1 (stereo not drawn) [Compound 7], the IC50 is listed as > 10 µM.

Same assay, conditions: pH 7.0; footnote **; read-out: IC50 GBA pH 7.0; cited from earlier work
For CCCCCCCCCCN(CCCCCCCCCC)C(=O)CNC(=N)N1CC(O)C(O)C(O)C1 (stereo not drawn) [Compound 6], the IC50 is listed as 0.02 ± 0.001 µM. For CCCCCCCCCCCCNC(=O)N1CC(O)C(O)C(O)C1 (stereo not drawn) [Compound 9], the IC50 is listed as > 10 µM. In the case of CCCCCCCCNC(=O)N1CC(O)C(O)C(O)C1 (stereo not drawn) [Compound 7], the IC50 is listed as > 10 µM.
